This note sets out measurements from patent EP4596574A1, “GLP-1/GCG/GIP TRIPLE-RECEPTOR AGONIST AND USE THEREOF” (Sunshine Lake Pharma Co., Ltd., priority 2022, dated 2024).

Marks after values point to notes of the source that are not given here.

For one experiment, the target named is T1, GCGR (Homo sapiens, UniProt P47871).
T1 construct: expressed in transfected cells; host or cells: HEK293 (HEK293-GCGR)
In words: In vitro cell activity, cAMP production in HEK293 cells expressing GCGR. Format: cell-based. The settings on record: HEK293-GCGR cells, cAMP; read-out: GCGR (EC50). As to the method: (§1) After they were completely thawed within 1.5 minutes, the cells were added dropwise into a 15 mL centrifuge tube containing 8 mL of warm culture medium in a clean bench. The tubes were centrifuged at 900 rpm for 5 minutes, the supernatant was discarded, and the cells were resuspended in 1 mL of complete culture medium (by pipetting 15 times). 20 µL of the suspension was immediately taken and mixed with an equal volume of trypan blue. 20 µL was taken to count the number of live cells, and the cells were diluted to 4×10^5 cells/mL with complete culture medium. • 4) The 384-well plate was divided into GLP-1R cell, GCGR cell and GIPR cell areas. The cell suspension was added to the wells of the corresponding area at 5 µL per well using a 12-channel variable-channel adjustable dispenser. […] Then, the diluted cAMP-d2 working solution and anti-cAMP-crytate working solution were mixed evenly in a ratio of 1:1, and 10 µL was added to each well of the sample group. The wells were covered with white lids and placed at room temperature in the dark for 1 hour or at 4 °C overnight. • 6) The fluorescence values at 665 nm and 620 nm were detected in a multifunctional microplate reader. In GraphPad Prism 6, the signal ratio and sample concentration were nonlinearly fitted using a four-parameter equation to obtain the EC50 value.
Background: Cyclic AMP is a second messenger, typically raised through Gs and lowered through Gi signalling.

The next experiment deals with T2, GIPR (Homo sapiens, UniProt P48546).
T2 construct: expressed in transfected cells; host or cells: HEK293 (HEK293-GIPR)
T2 sequence (P48546 22-466): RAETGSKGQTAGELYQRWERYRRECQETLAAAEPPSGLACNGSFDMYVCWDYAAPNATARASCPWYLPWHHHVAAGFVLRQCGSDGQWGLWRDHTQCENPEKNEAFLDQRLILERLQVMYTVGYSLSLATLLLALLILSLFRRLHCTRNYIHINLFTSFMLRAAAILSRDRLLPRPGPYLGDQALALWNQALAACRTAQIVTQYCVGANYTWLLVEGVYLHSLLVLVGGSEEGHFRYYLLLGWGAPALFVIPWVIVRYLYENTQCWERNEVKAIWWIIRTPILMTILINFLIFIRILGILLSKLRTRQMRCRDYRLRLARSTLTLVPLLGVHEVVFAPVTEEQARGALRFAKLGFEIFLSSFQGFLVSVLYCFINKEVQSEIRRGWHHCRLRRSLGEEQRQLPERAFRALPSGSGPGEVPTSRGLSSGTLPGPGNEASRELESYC
Description: In vitro cell activity, cAMP production in HEK293 cells expressing GIPR. Conditions: HEK293-GIPR cells, cAMP; read-out: GIPR (EC50). Format: cell-based. The method, then:
as §1, with “The wells were covered with white lids and placed at room temperature in the dark for 1 hour or at 4 °C overnight. • 6) The fluorescence values at 665 nm and 620 nm were detected in a multifunctional microplate reader.” left out

Another experiment addresses T3, GLP-1R (Homo sapiens, UniProt P43220).
T3 construct: expressed in transfected cells; host or cells: HEK293 (HEK293-GLP-1R)
In words: In vitro cell activity, cAMP production in HEK293 cells expressing GLP-1R. The settings on record: HEK293-GLP-1R cells, cAMP; read-out: GLP-1R (EC50). Format: cell-based. The method, then:
as §1

Experiment [1] can be described thus: Long-term repeated administration in diet-induced obese C57BL/6 mice (DIO). Format: in vivo, C57/BL6 mice. An excerpt: Experimental methods: C57/BL6 mice were randomly divided into a normal group (NFD) and a model group (HFD) at the fifth week of age. The normal group was fed with ordinary maintenance feed, while the other groups were fed with high-fat feed D12492. The body weight and food intake of mice were monitored every 3 weeks. After 16 weeks of feeding, the body weights of mice in the model group and the normal group were (49.0±2.3) g and (31.0±2.0) g, respectively, and the difference between the two groups was statistically significant. […] Body weight and food intake were measured before each administration. After 3 weeks of administration, an intraperitoneal glucose tolerance test was performed. The mice were slaughtered and samples were collected 72 h after the last administration. The liver weight was recorded, and the liver pathological conditions and blood biochemical indexes of each group were tested.

The mark [2] stands for this setting: 10 nmol/kg s.c. once every 3 days, D7.
Setting [3] is: 10 nmol/kg s.c. once every 3 days, D10.
Where [4] appears, read: 10 nmol/kg s.c. once every 3 days, D13.
Where [5] appears, read: 10 nmol/kg s.c. once every 3 days, D16.
The mark [6] stands for this setting: 10 nmol/kg s.c. once every 3 days, D19.
Setting [7] is: 10 nmol/kg s.c. once every 3 days, D22.
[8] abbreviates: 10 nmol/kg s.c. once every 3 days, D25.
The mark [9] stands for this setting: 10 nmol/kg s.c. once every 3 days, D28.
Where [10] appears, read: long-term administration 10 nmol/kg, 72 h after the last administration.
Where [11] appears, read: long-term administration 10 nmol/kg, blood biochemical index.

T3 sequence (P43220 24-463, species assumed): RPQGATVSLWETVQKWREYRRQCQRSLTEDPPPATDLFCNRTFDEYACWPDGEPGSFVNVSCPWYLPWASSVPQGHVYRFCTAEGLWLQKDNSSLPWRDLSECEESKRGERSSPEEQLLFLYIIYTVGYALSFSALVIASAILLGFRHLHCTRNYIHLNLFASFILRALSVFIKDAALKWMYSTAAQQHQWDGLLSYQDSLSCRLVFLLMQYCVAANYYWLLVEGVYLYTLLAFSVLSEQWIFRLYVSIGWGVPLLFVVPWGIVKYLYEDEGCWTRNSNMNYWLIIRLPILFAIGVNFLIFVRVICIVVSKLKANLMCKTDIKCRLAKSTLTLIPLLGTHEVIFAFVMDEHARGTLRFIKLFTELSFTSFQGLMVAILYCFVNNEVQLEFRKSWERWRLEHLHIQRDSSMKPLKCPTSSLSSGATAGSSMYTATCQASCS
T1 sequence (P47871 26-477, species assumed): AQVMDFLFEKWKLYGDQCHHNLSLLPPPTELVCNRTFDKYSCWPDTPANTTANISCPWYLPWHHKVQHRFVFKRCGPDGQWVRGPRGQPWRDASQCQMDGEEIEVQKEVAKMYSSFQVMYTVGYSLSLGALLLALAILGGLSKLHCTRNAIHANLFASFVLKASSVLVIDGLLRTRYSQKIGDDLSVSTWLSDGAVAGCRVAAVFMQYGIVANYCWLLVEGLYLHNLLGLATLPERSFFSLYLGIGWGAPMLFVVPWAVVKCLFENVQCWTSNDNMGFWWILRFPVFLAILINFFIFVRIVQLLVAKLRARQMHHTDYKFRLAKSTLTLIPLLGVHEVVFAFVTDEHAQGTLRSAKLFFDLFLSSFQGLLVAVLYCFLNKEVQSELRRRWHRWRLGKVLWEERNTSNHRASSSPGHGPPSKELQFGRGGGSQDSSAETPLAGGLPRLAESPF

In general, EC50 refers to the concentration that produces a half-maximal response. In the case of `CC[C@H](C)[C@H](NC(=O)[C@H](Cc1ccccc1)NC(=O)[C@H](C)NC(=O)[C@H](CCC(N)=O)NC(=O)[C@H](C)NC(=O)[C@H](CCCNC(=N)N)NC(=O)[C@H](CCCCNC(=O)COCCOCCNC(=O)CC[C@H](NC(=O)CCCCCCCCCCCCCCCCCCC(=O)O)C(=O)O)NC(=O)[C@H](CCC(=O)O)NC(=O)[C@H](CC(=O)O)NC(=O)[C@H](CC(C)C)NC(=O)[C@H](CC(C)C)NC(=O)[C@@H](NC(=O)[C@H](CO)NC(=O)[C@H](Cc1ccc(O)cc1)NC(=O)[C@H](CC(=O)O)NC(=O)[C@H](CO)NC(=O)[C@@H](NC(=O)[C@](C)(Cc1ccccc1F)NC(=O)[C@@H](NC(=O)CNC(=O)[C@H](CCC(N)=O)NC(=O)C(C)(C)NC(=O)[C@@H](N)Cc1ccc(O)cc1)[C@@H](C)O)[C@@H](C)O)[C@@H](C)CC)C(=O)N[C@@H](CCC(=O)O)C(=O)N[C@@H](Cc1ccc(O)cc1)C(=O)N[C@@H](CC(C)C)C(=O)N[C@@H](CC(C)C)C(=O)N[C@@H](CCC(=O)O)C(=O)NCC(=O)NCC(=O)N1CCC[C@H]1C(=O)N[C@@H](CO)C(=O)N[C@@H](CO)C(=O)NCC(=O)N[C@@H](C)C(=O)N1CCC[C@H]1C(=O)N1CCC[C@H]1C(=O)N1CCC[C@H]1C(=O)N[C@@H](CO)C(=O)O` [HEC-PT94], the 50% effective concentration (EC50) on GCGR was 0.0442 nM; on GIPR, 1.3 nM; on GLP-1R, 0.541 nM.

`CC[C@H](C)[C@H](NC(=O)[C@H](Cc1ccccc1)NC(=O)[C@H](CC(=O)O)NC(=O)[C@H](CCCNC(=N)N)NC(=O)[C@H](CCC(N)=O)NC(=O)[C@H](C)NC(=O)[C@H](CCCCNC(=O)COCCOCCNC(=O)CC[C@H](NC(=O)CCCCCCCCCCCCCCCCCCC(=O)O)C(=O)O)NC(=O)[C@H](CCC(=O)O)NC(=O)[C@H](CC(=O)O)NC(=O)[C@H](CC(C)C)NC(=O)[C@H](CC(C)C)NC(=O)[C@@H](NC(=O)[C@H](CO)NC(=O)[C@H](Cc1ccc(O)cc1)NC(=O)[C@H](CC(=O)O)NC(=O)[C@H](CO)NC(=O)[C@@H](NC(=O)[C@](C)(Cc1ccccc1F)NC(=O)[C@@H](NC(=O)CNC(=O)[C@H](Cc1c[nH]cn1)NC(=O)C(C)(C)NC(=O)[C@@H](N)Cc1ccc(O)cc1)[C@@H](C)O)[C@@H](C)O)[C@@H](C)CC)C(=O)N[C@@H](CCC(=O)O)C(=O)N[C@@H](Cc1c[nH]c2ccccc12)C(=O)N[C@@H](CC(C)C)C(=O)N[C@@H](CC(C)C)C(=O)N[C@@H](C)C(=O)NCC(=O)NCC(=O)N1CCC[C@H]1C(=O)N[C@@H](CO)C(=O)N[C@@H](CO)C(=O)NCC(=O)N[C@@H](C)C(=O)N1CCC[C@H]1C(=O)N1CCC[C@H]1C(=O)N1CCC[C@H]1C(=O)N[C@@H](CO)C(=O)O` [HEC-PT65]: the EC50 on GCGR amounted to 1.36 nM; on GIPR it was 0.157 nM; on GLP-1R, 0.624 nM.

For `CC[C@H](C)[C@H](NC(=O)[C@H](Cc1ccccc1)NC(=O)[C@H](CCC(=O)O)NC(=O)[C@H](CCC(N)=O)NC(=O)[C@H](CCC(N)=O)NC(=O)[C@H](CCCNC(=N)N)NC(=O)[C@H](CCCCNC(=O)COCCOCCNC(=O)CC[C@H](NC(=O)CCCCCCCCCCCCCCCCCCC(=O)O)C(=O)O)NC(=O)[C@H](CCCNC(=N)N)NC(=O)[C@H](CC(=O)O)NC(=O)[C@H](CC(C)C)NC(=O)[C@H](CC(C)C)NC(=O)[C@@H](NC(=O)[C@H](CO)NC(=O)[C@H](Cc1ccc(O)cc1)NC(=O)[C@H](CC(=O)O)NC(=O)[C@H](CO)NC(=O)[C@@H](NC(=O)[C@](C)(Cc1ccccc1F)NC(=O)[C@@H](NC(=O)CNC(=O)[C@H](CCC(N)=O)NC(=O)C(C)(C)NC(=O)[C@@H](N)Cc1ccc(O)cc1)[C@@H](C)O)[C@@H](C)O)[C@@H](C)CC)C(=O)N[C@@H](CCC(=O)O)C(=O)N[C@@H](Cc1c[nH]c2ccccc12)C(=O)N[C@@H](CC(C)C)C(=O)N[C@@H](CC(C)C)C(=O)N[C@@H](C)C(=O)NCC(=O)NCC(=O)N1CCC[C@H]1C(=O)N[C@@H](CO)C(=O)N[C@@H](CO)C(=O)NCC(=O)N[C@@H](C)C(=O)N1CCC[C@H]1C(=O)N1CCC[C@H]1C(=O)N1CCC[C@H]1C(=O)N[C@@H](CO)C(=O)O` [HEC-PT127], the EC50 on GCGR stood at 0.0707 nM; at GIPR, 0.0465 nM; on GLP-1R, 0.127 nM.

On to semaglutide [reference compound], for which, in experiment [1] (setting [2]), the “Cumulative food intake (g/pcs) D7” value is recorded as 14.1 g/pcs and the “Weight gain rate (%) D7” value was -8.1±1.7%. Moreover, in experiment [1] (setting [3]), the “Cumulative food intake (g/pcs) D10” value turned out to be 19.4 g/pcs and the “Weight gain rate (%) D10” value was -10.8±2.2%. Further, in experiment [1] (setting [4]), the “Cumulative food intake (g/each) D13” value is recorded as 25.2 g/each and the “Weight gain rate (%) D13” value is reported as -13.5±3.2%. Also, in experiment [1] (setting [5]), the “Cumulative food intake (g/each) D16” value turned out to be 31.5 g/each and the “Weight gain rate (%) D16” value is on record as -14.2±3.8%. In experiment [1] (setting [6]), the “Cumulative food intake (g/each) D19” value came out at 38.1 g/each and the “Weight gain rate (%) D19” value is given as -14.2±4.1%. Moreover, in experiment [1] (setting [7]), the “Cumulative food intake (g/each) D22” value was determined as 45.0 g/each and the “Weight gain rate (%) D22” value was -14.5±4.5%. Moreover, in experiment [1] (setting [8]), the “Cumulative food intake (g/each) D25” value is 51.6 g/each and the “Weight gain rate (%) D25” value is -16.5±4.1%. For the same compound, in experiment [1] (setting [9]), the “Cumulative food intake (g/each) D28” value came out at 58.9 g/each and the “Weight gain rate (%) D28” value was -18.5±5.1%. In addition, the “Cumulative food intake (g/each) D30” value in experiment [1] (10 nmol/kg s.c. once every 3 days, D30) is on record as 63.9^a g/each. In experiment [1] (10 nmol/kg s.c. once every 3 days, D31), the “Weight gain rate (%) D31” value is -17.4±4.9^a %. In addition, in experiment [1] (10 nmol/kg s.c., D0), the “Cumulative food intake (g/pcs) D0” value worked out at 2.6 g/pcs and the “Weight gain rate (%) D0” value is listed as 0.0±0.0%. Besides, in experiment [1] (10 nmol/kg s.c., D1), the “Cumulative food intake (g/pcs) D1” value was determined as 2.9 g/pcs and the “Weight gain rate (%) D1” value was -6.8±0.6%. Further, in experiment [1] (10 nmol/kg s.c., D2), the “Cumulative food intake (g/pcs) D2” value worked out at 4.0 g/pcs and the “Weight gain rate (%) D2” value was -7.1±1.1%. Moreover, in experiment [1] (10 nmol/kg s.c., D3), the “Cumulative food intake (g/pcs) D3” value turned out to be 6.4 g/pcs and the “Weight gain rate (%) D3” value is reported as -5.2±1.3%. Besides, in experiment [1] (10 nmol/kg s.c., D4), the “Cumulative food intake (g/pcs) D4” value stood at 9.3 g/pcs and the “Weight gain rate (%) D4” value was -3.8±1.3%. In experiment [1] (setting [10]), the Liver index/% was 3.0±0.0^a %, the Liver/g is 1.1±0.1^a g and the Weight/g is on record as 38.3±2.9^a g. In experiment [1] (setting [11]), the “ALT (U/L)” value is listed as 45.4±14.6^a U/L, the “AST (U/L)” value is recorded as 131.2±19.2^a U/L, the “CHOL (mmol/L)” value is 4.5±0.6^a mmol/L and the “TRIGL (mmol/L)” value is listed as 0.6±0.1^a mmol/L.
